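Assay format: 96-well plates, 48-hour exposure. Abbreviation: GI50, concentration required for 50% inhibition of growth.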 Calls of active or inactive are those of the source. Rule as the data show it: active = GI50 up to about 1.1 µM and inactive = higher.
How the values were obtained:
Assay in all cases: NCI anticancer screen, dose series, 48 h
SNB-19 = tested on: SNB-19
HCC 2998 = tested on: HCC 2998
UACC-257 = tested on: UACC-257
OVCAR-4 = tested on: OVCAR-4
CCRF-CEM = tested on: CCRF-CEM
SR = tested on: SR
TK-10 = tested on: TK-10
ACHN = tested on: ACHN
LOX IMVI = tested on: LOX IMVI
OVCAR-5 = tested on: OVCAR-5
SK-MEL-2 = tested on: SK-MEL-2
OVCAR-3 = tested on: OVCAR-3
KM12 = tested on: KM12
HOP-62 = tested on: HOP-62
SK-OV-3 = tested on: SK-OV-3
DU-145 = tested on: DU-145
MDA-MB-435 = tested on: MDA-MB-435
MDA-N = tested on: MDA-N
T47D = tested on: T47D
BT-549 = tested on: BT-549

SMILES	GI50 (SNB-19)	GI50 (HCC 2998)	GI50 (UACC-257)	GI50 (OVCAR-4)	GI50 (CCRF-CEM)	GI50 (SR)	GI50 (TK-10)	GI50 (ACHN)	GI50 (LOX IMVI)	GI50 (OVCAR-5)	GI50 (SK-MEL-2)	GI50 (OVCAR-3)	GI50 (KM12)	GI50 (HOP-62)	GI50 (SK-OV-3)	GI50 (DU-145)	GI50 (MDA-MB-435)	GI50 (MDA-N)	GI50 (T47D)	GI50 (BT-549)
O=C1c2ccccc2C(=O)c2sc(Nc3cccc(Cl)c3)nc21	2.07 µM (inactive)	2.75 µM (inactive)	1.52 µM (inactive)	1.45 µM (inactive)	1.36 µM (inactive)	2.34 µM (inactive)	2.88 µM (inactive)	1.61 µM (inactive)	1.27 µM (inactive)	2.22 µM (inactive)	1.79 µM (inactive)	1.12 µM (active)	2.03 µM (inactive)	1.82 µM (inactive)	8.11 µM (inactive)	–	–	–	–	–
CC(C)(C)[Si](C)(C)OCC1OC(n2cnc3c(=O)[nH]cnc32)CC1O (configuration not stated)	> 100 µM (inactive)	> 100 µM (inactive)	> 100 µM (inactive)	> 100 µM (inactive)	> 100 µM (inactive)	> 100 µM (inactive)	> 100 µM (inactive)	> 100 µM (inactive)	> 100 µM (inactive)	> 100 µM (inactive)	> 100 µM (inactive)	> 100 µM (inactive)	> 100 µM (inactive)	> 100 µM (inactive)	> 100 µM (inactive)	> 100 µM (inactive)	> 100 µM (inactive)	> 100 µM (inactive)	> 100 µM (inactive)	–
COc1ccccc1/C=C1\NC(=S)N(/C=C2\C(=O)Oc3ccccc3C2=O)C1=O	38.2 µM (inactive)	53.7 µM (inactive)	42.4 µM (inactive)	24.9 µM (inactive)	23.4 µM (inactive)	–	33.5 µM (inactive)	55.6 µM (inactive)	60.5 µM (inactive)	> 100 µM (inactive)	62.1 µM (inactive)	32.1 µM (inactive)	47 µM (inactive)	> 100 µM (inactive)	80.4 µM (inactive)	21.1 µM (inactive)	35.2 µM (inactive)	–	–	21.9 µM (inactive)
COC(=O)[C@H](C)[C@H]1CC[C@@](C)([C@H]2CC3C(C)(C)[C@H]4CCC(C)=C[C@H]4C[C@@]3(C)O2)OO1 (some centres not stated)	14.8 µM (inactive)	6.68 µM (inactive)	12.1 µM (inactive)	11.9 µM (inactive)	4.2 µM (inactive)	9.12 µM (inactive)	15.3 µM (inactive)	10.4 µM (inactive)	1.6 µM (inactive)	13.4 µM (inactive)	15.4 µM (inactive)	13.2 µM (inactive)	11.7 µM (inactive)	19.3 µM (inactive)	30.5 µM (inactive)	–	–	–	–	–
Cc1cc(C)c(S(=O)(=O)N2CCN(S(=O)(=O)c3c(C)cc(C)cc3C)OCCCCCO2)c(C)c1	> 100 µM (inactive)	–	> 100 µM (inactive)	> 100 µM (inactive)	> 100 µM (inactive)	–	> 100 µM (inactive)	> 100 µM (inactive)	> 100 µM (inactive)	> 100 µM (inactive)	> 100 µM (inactive)	> 100 µM (inactive)	> 100 µM (inactive)	> 100 µM (inactive)	> 100 µM (inactive)	> 100 µM (inactive)	> 100 µM (inactive)	> 100 µM (inactive)	–	> 100 µM (inactive)
CCCNc1ncnc2c1cnn2C	> 100 µM (inactive)	> 100 µM (inactive)	> 100 µM (inactive)	> 100 µM (inactive)	> 100 µM (inactive)	> 100 µM (inactive)	> 100 µM (inactive)	> 100 µM (inactive)	> 100 µM (inactive)	> 100 µM (inactive)	> 100 µM (inactive)	> 100 µM (inactive)	> 100 µM (inactive)	> 100 µM (inactive)	> 100 µM (inactive)	–	–	–	–	–
O=C1/C(=C/C=C/c2ccccc2)N=C(c2ccccc2)N1C1Nc2cc3c(cc2S1)NC(N1C(=O)/C(=C/C=C/c2ccccc2)N=C1c1ccccc1)S3 (configuration not stated)	–	11.4 µM (inactive)	> 100 µM (inactive)	73.8 µM (inactive)	43.9 µM (inactive)	< 0.01 µM (active)	86.7 µM (inactive)	41.8 µM (inactive)	48.8 µM (inactive)	> 100 µM (inactive)	> 100 µM (inactive)	46.9 µM (inactive)	21.7 µM (inactive)	> 100 µM (inactive)	> 100 µM (inactive)	38.8 µM (inactive)	31.9 µM (inactive)	–	30.3 µM (inactive)	–
C=C1CCC2C(C)(CO)C(O)CCC2(C)C1C/C=C1/CCOC1=O (configuration not stated)	> 100 µM (inactive)	> 100 µM (inactive)	> 100 µM (inactive)	> 100 µM (inactive)	> 100 µM (inactive)	> 100 µM (inactive)	> 100 µM (inactive)	> 100 µM (inactive)	> 100 µM (inactive)	> 100 µM (inactive)	> 100 µM (inactive)	> 100 µM (inactive)	> 100 µM (inactive)	> 100 µM (inactive)	> 100 µM (inactive)	–	–	–	–	–
C=C1CC[C@@H]2C(C)(C)CCC[C@@]2(C)[C@@H]1Cc1cc(O)ccc1O	6.24 µM (inactive)	13.8 µM (inactive)	1.93 µM (inactive)	1.8 µM (inactive)	0.558 µM (active)	2.42 µM (inactive)	3.17 µM (inactive)	3.56 µM (inactive)	2.16 µM (inactive)	15.1 µM (inactive)	2.04 µM (inactive)	5.31 µM (inactive)	6.18 µM (inactive)	9.59 µM (inactive)	2.3 µM (inactive)	–	–	–	–	–
COc1ccc(OC)c2c1C(=O)C(Cl)=C(Cl)C2=O	> 46 µM (inactive)	17.3 µM (inactive)	2.19 µM (inactive)	3.54 µM (inactive)	14.6 µM (inactive)	1.16 µM (inactive)	3.09 µM (inactive)	2.99 µM (inactive)	2.07 µM (inactive)	15.7 µM (inactive)	3.06 µM (inactive)	2.39 µM (inactive)	17.3 µM (inactive)	–	28.4 µM (inactive)	19.6 µM (inactive)	2.31 µM (inactive)	2.08 µM (inactive)	3.17 µM (inactive)	–
COC(=O)[C@@H]1OC(C)(c2ccccc2)O[C@H]1C(=O)OC	> 100 µM (inactive)	76.4 µM (inactive)	> 100 µM (inactive)	> 100 µM (inactive)	48.1 µM (inactive)	> 100 µM (inactive)	> 100 µM (inactive)	> 100 µM (inactive)	> 100 µM (inactive)	> 100 µM (inactive)	> 100 µM (inactive)	> 100 µM (inactive)	> 100 µM (inactive)	> 100 µM (inactive)	> 100 µM (inactive)	> 100 µM (inactive)	> 100 µM (inactive)	> 100 µM (inactive)	> 100 µM (inactive)	–
Cn1cnnc1Sc1c([N+](=O)[O-])nc(-c2ccc([N+](=O)[O-])cc2)n1C	> 100 µM (inactive)	17.5 µM (inactive)	16 µM (inactive)	16.1 µM (inactive)	10.3 µM (inactive)	16.2 µM (inactive)	18.7 µM (inactive)	18.6 µM (inactive)	13.6 µM (inactive)	27.7 µM (inactive)	15.1 µM (inactive)	17 µM (inactive)	20.5 µM (inactive)	> 100 µM (inactive)	> 100 µM (inactive)	–	–	–	–	–

Source: ChEMBL document CHEMBL1201862, “PubChem BioAssay data set” (2004)
